Measured values published in ChEMBL document CHEMBL4840335, “Rational Design and Development of Novel CDK9 Inhibitors for the Treatment of Acute Myeloid Leukemia” (J Med Chem, 2021).
Activity calls are given as the source filed them. The rule behind the calls is not given here.

Tests used:
[1] = target: ALK tyrosine kinase receptor (Homo sapiens, UniProt Q9UM73); assay: Inhibition of ALK (unknown origin)
MM1.S = assay: Antiproliferative activity against human MM1.S cells assessed as reduction in cell proliferation measured after 3 to 7 days by MTS assay; type: functional, cell-based
OCI-Ly10 = assay: Antiproliferative activity against human OCILY10 cells assessed as reduction in cell proliferation measured after 3 to 7 days by MTS assay; type: functional, cell-based
[2] = target: Proto-oncogene tyrosine-protein kinase receptor Ret (Homo sapiens, UniProt P07949); assay: Inhibition of RET (unknown origin)
MV4-11 [3] = assay: Induction of apoptosis in human MV4-11 cells assessed as downregulation of BCL2 at 1 to 10 uM measured after 12 hrs by Western blot analysis; type: functional, cell-based; settings: dose 1-10 µM
CCRF-CEM = assay: Antiproliferative activity against human CCRF-CEM cells assessed as reduction in cell proliferation measured after 3 to 7 days by MTS assay; type: functional, cell-based
[4] = MRT in ICR mouse at 2 mg/kg, iv measured up to 24 hrs; type: ADME, organism-based; settings: in vivo
[5] = target: Cyclin-dependent kinase 4 (Homo sapiens, UniProt P11802); assay: Inhibition of CDK4 (unknown origin)
[6] = target: Vascular endothelial growth factor receptor 1 (Homo sapiens, UniProt P17948); assay: Inhibition of VEGFR1 (unknown origin)
Wee1-like protein kinase = Wee1-like protein kinase (Homo sapiens, UniProt P30291); assay: Inhibition of WEE1 (unknown origin)
[7] = target: Hepatocyte growth factor receptor (Homo sapiens, UniProt P08581); assay: Inhibition of Met (unknown origin)
[8] = target: Cyclin-dependent kinase 2 (Homo sapiens, UniProt P24941); assay: Inhibition of CDK2 (unknown origin)
[9] = target: Tyrosine-protein kinase BTK (Homo sapiens, UniProt Q06187); assay: Inhibition of BTK (unknown origin)
[10] = Toxicity in Nu/Nu mouse xenografted with human MV4-11 cells assessed as change in body weight at 7.5 mg/kg, po administered for 21 consecutive days and measured on day 22 (reference value: 23.9 +/- 0.7 g); type: organism-based; settings: in vivo, 528 h, time 22 day
[11] = target: Proto-oncogene tyrosine-protein kinase Src (Homo sapiens, UniProt P12931); assay: Inhibition of SRC (unknown origin)
[12] = Toxicity in Nu/Nu mouse xenografted with human MV4-11 cells assessed as body weight loss at 7.5 mg/kg, po administered for 21 consecutive days relative to control; type: organism-based; settings: in vivo, 504 h, time 21 day
[13] = target: Fibroblast growth factor receptor 2 (Homo sapiens, UniProt P21802); assay: Inhibition of FGFR2 (unknown origin)
[14] = target: Receptor tyrosine-protein kinase erbB-4 (Homo sapiens, UniProt Q15303); assay: Inhibition of ErbB4 (unknown origin)
[15] = Tmax in ICR mouse at 20 mg/kg, po measured up to 24 hrs; type: ADME, organism-based; settings: in vivo
CDK9/cyclin T1 = CDK9/cyclin T1 (Homo sapiens, UniProt P50750); assay: Inhibition of CDK9/cyclin T1 (unknown origin) incubated for 2 hrs in presence of ATP by FRET based LANCE assay; type: protein-complex assay
[16] = target: Tyrosine-protein kinase receptor UFO (Homo sapiens, UniProt P30530); assay: Inhibition of AXL (unknown origin)
[17] = target: Insulin-like growth factor 1 receptor (Homo sapiens, UniProt P08069); assay: Inhibition of IGF1R (unknown origin)
RPMI-8226 = assay: Antiproliferative activity against human RPMI-8226 cells assessed as reduction in cell proliferation measured after 3 to 7 days by MTS assay; type: functional, cell-based
[18] = Half life in ICR mouse at 2 mg/kg, iv measured up to 24 hrs; type: ADME, organism-based; settings: in vivo
[19] = Oral bioavailability in ICR mouse at 20 mg/kg measured up to 24 hrs; type: ADME, organism-based; settings: in vivo
[20] = target: Fibroblast growth factor receptor 3 (Homo sapiens, UniProt P22607); assay: Inhibition of FGFR3 (unknown origin)
MV4-11 [21] = assay: Antitumor activity against human MV4-11 cells xenografted in Nu/Nu mouse assessed as change in tumor volume at 7.5 mg/kg, po administered for 21 consecutive days by digital caliper method and measured on day 22 (reference value: 127 +/- 16 mm3); type: functional; settings: time 22 day
[22] = target: Tyrosine-protein kinase receptor TYRO3 (Homo sapiens, UniProt Q06418); assay: Inhibition of TYRO3 (unknown origin)
MV4-11 [23] = assay: Induction of apoptosis in human MV4-11 cells assessed as early apoptotic cells at 10 nM measured after 24 hrs by annexinV-FITC/propidium iodide staining based flow cytometry (reference value: 0.79 %); type: functional
Z-138 = assay: Antiproliferative activity against human Z138 cells assessed as reduction in cell proliferation measured after 3 to 7 days by MTS assay; type: functional, cell-based
Insulin receptor = Insulin receptor (Homo sapiens, UniProt P06213); assay: Inhibition of IR (unknown origin)
MV4-11 [24] = assay: Antitumor activity against human MV4-11 cells xenografted in Nu/Nu mouse assessed as inhibition of tumor growth at 7.5 mg/kg, po administered for 21 consecutive days by digital caliper method relative to control; type: functional; settings: MV4-11, po, 504 h, time 21 day
[25] = target: Discoidin domain-containing receptor 2 (Homo sapiens, UniProt Q16832); assay: Inhibition of DDR2 (unknown origin)
[26] = target: Cyclin-dependent kinase 7 (Homo sapiens, UniProt P50613); assay: Inhibition of CDK7 (unknown origin)
[27] = target: Cyclin-dependent kinase 9 (Homo sapiens) (UniProt P50750); assay: Inhibition of CDK9 in human MV4-11 cells assessed as reduction in RNAP2 phosphorylation at ser5 residues at 1 to 10 uM after 12 hrs by Western blot analysis; type: cell-based; settings: dose 1-10 µM
[28] = target: Epidermal growth factor receptor (Homo sapiens, UniProt P00533); assay: Inhibition of EGFR (unknown origin)
[29] = Antiproliferative activity against human MINO cells assessed as reduction in cell proliferation measured after 3 to 7 days by MTS assay; type: functional, cell-based
[30] = target: Platelet-derived growth factor receptor beta (Homo sapiens, UniProt P09619); assay: Inhibition of PDGFRB (unknown origin)
Raji = assay: Antiproliferative activity against human Raji cells assessed as reduction in cell proliferation measured after 3 to 7 days by MTS assay; type: functional, cell-based
[31] = target: Fibroblast growth factor receptor 4 (Homo sapiens, UniProt P22455); assay: Inhibition of FGFR4 (unknown origin)
TMD8 = assay: Antiproliferative activity against human TMD8 cells assessed as reduction in cell proliferation measured after 3 to 7 days by MTS assay; type: functional, cell-based
MV4-11 [32] = assay: Induction of apoptosis in human MV4-11 cells assessed as late apoptotic cells at 10 nM measured after 24 hrs by annexinV-FITC/propidium iodide staining based flow cytometry (reference value: 3.04 %); type: functional
[33] = target: Platelet-derived growth factor receptor alpha (Homo sapiens, UniProt P16234); assay: Inhibition of PDGFRA (unknown origin)
[34] = target: Serine/threonine-protein kinase PAK 1 (Homo sapiens, UniProt Q13153); assay: Inhibition of PAK1 (unknown origin)

Chain of CDK9/cyclin T1 (O60563 whole entry): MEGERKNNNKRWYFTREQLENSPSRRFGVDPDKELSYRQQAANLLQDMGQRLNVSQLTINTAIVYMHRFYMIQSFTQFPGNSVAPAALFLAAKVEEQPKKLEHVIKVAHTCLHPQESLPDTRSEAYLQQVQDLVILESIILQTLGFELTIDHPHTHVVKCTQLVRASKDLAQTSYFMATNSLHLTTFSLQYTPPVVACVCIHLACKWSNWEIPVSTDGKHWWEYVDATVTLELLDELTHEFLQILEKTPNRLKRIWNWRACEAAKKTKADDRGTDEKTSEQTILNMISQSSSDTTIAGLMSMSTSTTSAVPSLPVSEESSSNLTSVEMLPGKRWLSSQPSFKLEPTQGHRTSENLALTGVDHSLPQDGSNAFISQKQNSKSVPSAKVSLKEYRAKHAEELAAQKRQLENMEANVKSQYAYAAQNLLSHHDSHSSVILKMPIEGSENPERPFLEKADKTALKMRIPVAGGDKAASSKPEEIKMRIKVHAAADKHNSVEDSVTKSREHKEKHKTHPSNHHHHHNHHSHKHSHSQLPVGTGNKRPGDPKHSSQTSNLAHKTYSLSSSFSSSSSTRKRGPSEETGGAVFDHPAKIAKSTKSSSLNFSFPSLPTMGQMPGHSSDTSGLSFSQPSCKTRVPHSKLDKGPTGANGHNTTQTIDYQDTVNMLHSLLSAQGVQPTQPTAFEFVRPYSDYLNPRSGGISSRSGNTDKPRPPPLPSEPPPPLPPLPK
Chain of CDK9/cyclin T1 (P50750 whole entry): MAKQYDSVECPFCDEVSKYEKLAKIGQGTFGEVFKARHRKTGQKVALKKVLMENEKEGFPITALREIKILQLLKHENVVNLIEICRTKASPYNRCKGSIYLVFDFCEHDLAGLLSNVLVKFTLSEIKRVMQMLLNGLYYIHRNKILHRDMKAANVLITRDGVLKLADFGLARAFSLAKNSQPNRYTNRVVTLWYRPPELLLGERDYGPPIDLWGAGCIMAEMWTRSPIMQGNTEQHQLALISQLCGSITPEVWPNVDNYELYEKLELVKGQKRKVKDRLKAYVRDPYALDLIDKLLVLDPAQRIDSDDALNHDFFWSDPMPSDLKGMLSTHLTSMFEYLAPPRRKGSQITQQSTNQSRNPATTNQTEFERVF
Chain of Insulin-like growth factor 1 receptor (P08069 31-736 limits assumed): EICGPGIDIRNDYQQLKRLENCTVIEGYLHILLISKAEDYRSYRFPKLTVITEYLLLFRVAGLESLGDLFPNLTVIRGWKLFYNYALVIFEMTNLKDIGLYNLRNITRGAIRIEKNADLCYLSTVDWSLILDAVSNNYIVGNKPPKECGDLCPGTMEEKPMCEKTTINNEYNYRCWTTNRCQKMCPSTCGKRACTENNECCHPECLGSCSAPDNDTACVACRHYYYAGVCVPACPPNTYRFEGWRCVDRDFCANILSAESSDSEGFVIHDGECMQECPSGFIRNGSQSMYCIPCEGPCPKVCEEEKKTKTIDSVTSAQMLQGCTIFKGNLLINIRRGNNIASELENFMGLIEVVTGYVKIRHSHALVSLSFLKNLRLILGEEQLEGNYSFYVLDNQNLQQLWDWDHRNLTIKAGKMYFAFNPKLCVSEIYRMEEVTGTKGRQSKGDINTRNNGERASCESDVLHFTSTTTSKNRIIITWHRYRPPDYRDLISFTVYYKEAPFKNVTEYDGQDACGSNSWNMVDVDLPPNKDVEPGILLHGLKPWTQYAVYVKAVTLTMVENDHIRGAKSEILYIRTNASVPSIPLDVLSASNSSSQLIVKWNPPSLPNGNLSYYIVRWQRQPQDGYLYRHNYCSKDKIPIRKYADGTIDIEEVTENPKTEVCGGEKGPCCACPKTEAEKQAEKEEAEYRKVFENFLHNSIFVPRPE
Chain of Insulin-like growth factor 1 receptor (P08069 741-1367 limits assumed): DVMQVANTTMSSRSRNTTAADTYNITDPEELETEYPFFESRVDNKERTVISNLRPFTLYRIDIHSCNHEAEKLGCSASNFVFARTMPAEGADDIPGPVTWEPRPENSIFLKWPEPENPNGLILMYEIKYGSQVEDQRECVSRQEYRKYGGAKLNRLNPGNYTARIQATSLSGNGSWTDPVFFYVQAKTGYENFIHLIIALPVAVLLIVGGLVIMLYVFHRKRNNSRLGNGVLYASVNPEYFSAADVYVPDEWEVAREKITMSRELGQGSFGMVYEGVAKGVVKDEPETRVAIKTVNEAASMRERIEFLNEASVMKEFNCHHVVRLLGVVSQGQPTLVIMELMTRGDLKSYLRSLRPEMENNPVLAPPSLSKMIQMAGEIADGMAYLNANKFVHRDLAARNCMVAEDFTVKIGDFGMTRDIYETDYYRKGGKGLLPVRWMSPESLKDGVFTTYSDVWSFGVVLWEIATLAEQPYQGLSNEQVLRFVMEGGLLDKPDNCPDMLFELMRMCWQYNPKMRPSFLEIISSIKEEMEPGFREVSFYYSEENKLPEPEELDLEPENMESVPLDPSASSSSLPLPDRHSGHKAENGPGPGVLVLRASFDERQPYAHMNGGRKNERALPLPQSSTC
Chain of Epidermal growth factor receptor (P00533 whole entry): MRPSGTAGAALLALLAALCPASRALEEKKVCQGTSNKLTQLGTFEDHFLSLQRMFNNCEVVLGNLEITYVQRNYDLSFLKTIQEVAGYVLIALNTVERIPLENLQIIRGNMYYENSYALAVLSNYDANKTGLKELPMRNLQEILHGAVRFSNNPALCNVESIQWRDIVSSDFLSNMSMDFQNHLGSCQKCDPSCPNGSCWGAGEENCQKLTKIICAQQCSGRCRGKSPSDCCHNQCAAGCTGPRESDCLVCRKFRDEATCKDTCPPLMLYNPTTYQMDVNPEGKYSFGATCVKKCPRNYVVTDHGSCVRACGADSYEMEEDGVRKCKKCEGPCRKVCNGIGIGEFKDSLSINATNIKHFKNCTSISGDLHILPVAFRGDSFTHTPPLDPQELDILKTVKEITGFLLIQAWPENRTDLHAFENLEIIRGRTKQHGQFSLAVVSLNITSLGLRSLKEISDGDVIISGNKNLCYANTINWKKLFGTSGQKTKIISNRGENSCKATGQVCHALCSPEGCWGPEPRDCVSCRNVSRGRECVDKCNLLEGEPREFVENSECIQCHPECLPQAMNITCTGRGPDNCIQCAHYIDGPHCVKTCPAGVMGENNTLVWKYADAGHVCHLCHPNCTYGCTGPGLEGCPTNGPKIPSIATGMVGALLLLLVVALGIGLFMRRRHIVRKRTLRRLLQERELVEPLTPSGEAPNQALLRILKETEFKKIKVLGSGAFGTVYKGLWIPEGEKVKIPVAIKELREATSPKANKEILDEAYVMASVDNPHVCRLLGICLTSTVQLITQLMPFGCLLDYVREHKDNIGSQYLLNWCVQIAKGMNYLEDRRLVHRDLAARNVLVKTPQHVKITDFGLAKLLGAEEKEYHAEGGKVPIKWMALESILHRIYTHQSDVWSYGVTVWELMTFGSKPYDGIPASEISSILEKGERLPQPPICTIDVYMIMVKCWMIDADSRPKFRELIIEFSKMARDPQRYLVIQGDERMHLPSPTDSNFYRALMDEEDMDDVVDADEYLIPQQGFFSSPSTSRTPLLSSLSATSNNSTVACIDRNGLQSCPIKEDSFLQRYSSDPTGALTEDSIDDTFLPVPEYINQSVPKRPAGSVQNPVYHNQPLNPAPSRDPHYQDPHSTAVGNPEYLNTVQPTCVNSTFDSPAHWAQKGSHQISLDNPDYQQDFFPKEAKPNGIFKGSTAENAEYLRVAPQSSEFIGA
Chain of Wee1-like protein kinase (P30291 whole entry): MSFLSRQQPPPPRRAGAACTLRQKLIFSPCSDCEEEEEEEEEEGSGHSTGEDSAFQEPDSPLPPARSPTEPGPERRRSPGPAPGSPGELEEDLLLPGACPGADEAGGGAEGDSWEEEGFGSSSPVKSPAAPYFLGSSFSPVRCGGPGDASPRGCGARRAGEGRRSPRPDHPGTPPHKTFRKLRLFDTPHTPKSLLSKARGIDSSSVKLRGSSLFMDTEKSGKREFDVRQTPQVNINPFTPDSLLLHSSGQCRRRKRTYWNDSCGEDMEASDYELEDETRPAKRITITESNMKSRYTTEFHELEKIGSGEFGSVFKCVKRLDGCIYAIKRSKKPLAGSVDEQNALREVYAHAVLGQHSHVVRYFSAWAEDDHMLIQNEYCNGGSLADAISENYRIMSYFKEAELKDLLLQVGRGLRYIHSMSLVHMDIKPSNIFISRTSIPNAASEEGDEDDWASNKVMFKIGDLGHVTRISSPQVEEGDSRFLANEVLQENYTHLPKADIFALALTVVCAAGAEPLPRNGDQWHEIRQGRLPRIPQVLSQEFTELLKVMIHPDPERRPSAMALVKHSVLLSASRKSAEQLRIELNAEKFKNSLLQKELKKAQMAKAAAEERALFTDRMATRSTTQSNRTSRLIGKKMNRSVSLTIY
Chain of Tyrosine-protein kinase BTK (Q06187 whole entry): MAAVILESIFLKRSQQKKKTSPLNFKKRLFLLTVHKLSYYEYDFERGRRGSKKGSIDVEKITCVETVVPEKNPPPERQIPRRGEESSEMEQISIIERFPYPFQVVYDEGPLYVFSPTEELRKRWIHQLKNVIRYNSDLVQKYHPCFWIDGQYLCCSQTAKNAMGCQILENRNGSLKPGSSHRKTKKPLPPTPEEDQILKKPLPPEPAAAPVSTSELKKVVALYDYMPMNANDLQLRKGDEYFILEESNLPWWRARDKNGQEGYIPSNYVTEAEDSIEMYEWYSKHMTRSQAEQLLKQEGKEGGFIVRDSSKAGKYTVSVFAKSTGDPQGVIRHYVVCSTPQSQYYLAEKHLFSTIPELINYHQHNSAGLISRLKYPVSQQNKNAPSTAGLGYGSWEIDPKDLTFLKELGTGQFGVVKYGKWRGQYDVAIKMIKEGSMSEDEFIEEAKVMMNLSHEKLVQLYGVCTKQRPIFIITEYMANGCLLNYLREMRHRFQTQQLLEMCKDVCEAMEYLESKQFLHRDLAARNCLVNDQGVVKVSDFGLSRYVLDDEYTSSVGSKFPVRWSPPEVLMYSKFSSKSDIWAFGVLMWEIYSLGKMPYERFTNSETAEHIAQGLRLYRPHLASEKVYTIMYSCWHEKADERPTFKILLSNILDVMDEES
Chain of Cyclin-dependent kinase 9 (Homo sapiens) (P50750 whole entry): as the sequence (P50750 whole entry) above

SMILES: Cc1n[nH]c2ccc(-c3cc(N[C@@H](CO)c4ccccc4)cnc3Cl)cc12
- IC50 [1]: > 1 µM
- IC50 (MM1.S): 0.013 µM
- IC50 (OCI-Ly10): 0.0032 µM
- IC50 [2]: > 1 µM
- Activity (MV4-11 [3]): inactive
- IC50 (CCRF-CEM): 0.0021 µM
- MRT [4]: 43.8 min
- IC50 [5]: > 1 µM
- IC50 [6]: > 1 µM
- IC50 (Wee1-like protein kinase): > 1 µM
- IC50 [7]: > 1 µM
- IC50 [8]: 0.164 µM
- IC50 [9]: > 1 µM
- Activity [10]: 22.1 g
- IC50 [11]: > 1 µM
- Activity [12]: < 10%
- IC50 [13]: > 1 µM
- IC50 [14]: > 1 µM
- Tmax [15]: 4.98 min
- IC50 (CDK9/cyclin T1): 0.00541 µM
- IC50 [16]: > 1 µM
- IC50 [17]: > 1 µM
- IC50 (RPMI-8226): 0.0054 µM
- half-life [18]: 109 min
- bioavailability [19]: 33.7%
- IC50 [20]: > 1 µM
- Activity (MV4-11 [21]): 371 mm3
- IC50 [22]: > 1 µM
- Activity (MV4-11 [23]): 1.76%
- IC50 (Z-138): 0.046 µM
- IC50 (Insulin receptor): > 1 µM
- inhibition in vivo at 7.5 mg/kg (MV4-11 [24]): 77.4%
- IC50 [25]: > 1 µM
- IC50 [26]: > 1 µM
- inhibition [27]: inactive
- IC50 [28]: > 1 µM
- IC50 [29]: 0.0084 µM
- IC50 [30]: > 1 µM
- IC50 (Raji): 0.037 µM
- IC50 [31]: > 1 µM
- IC50 (TMD8): 0.046 µM
- Activity (MV4-11 [32]): 2.95%
- IC50 [33]: > 1 µM
- IC50 [34]: > 1 µM
